Data as given in patent publication US5578574A, “Antithrombotic agents” (Eli Lilly and Company, priority 1995, dated 1996).
Square brackets hold non-standard residues; d marks the D form. Peptide text beside a SMILES is read from it. ξ: configuration not given here. dPip = O=C(O)[C@H]1CCCCN1; dThz = O=C(O)[C@H]1CSCN1; ξAze = O=C(O)C1CCN1

Columns and labels:
human thrombin = human thrombin (Homo sapiens, UniProt P00734); test: Human thrombin inhibition (amidase activity, chromogenic substrate; Kass); details: purified human thrombin, mean over a range of concentrations
Experimental: Standard curves are constructed by plotting free thrombin concentration against hydrolysis rate. […] The amount of free inhibitor in each assay is calculated by subtracting the number of moles of bound thrombin from the number of moles of added inhibitor (test compound).
Kass is calculated for a range of concentrations of test compounds and the mean value reported in units of liter per mole.

[1] = Index of Bioavailability (plasma thrombin time AUC, oral vs i.v.); format: in vivo; details: rats; dose-adjusted AUC of plasma TT time course, p.o. vs i.v. bolus
Excerpt: Assays are done in duplicate and averaged.
Each sample population represents alternating sequential time points.

thrombin = details: Bajusz et al., J. Med. Chem., 33, 1729-1735 (1990); cited from earlier work
[2] = early clinical studies, Simoons et al.; cited from earlier work
[3] = Template Bleeding Time assay (gingival); format: in vivo, dog; details: 0.25, 0.50 and 1.0 mg/kg.hr; over a 240 minute time
Experimental: Whole blood cell counts, hemoglobin, and hematocrit values are determined on a 40-μl sample of citrated (3.8 percent) blood (1 part citrate:9 parts blood) with a hematology analyzer (Cell-Dyn 900, Sequoia-Turner. Mount View, Calif., U.S.A.). Gingival template bleeding times are determined with a Simplate II bleeding time device (Organon Teknika Durham, N.C., U.S.A.). The device is used to make 2 horizontal incisions in the gingiva of either the upper or lower left jaw of the dog. Each incision is 3 mm wide×2 mm deep. The incisions are made, and a stopwatch is used to determine how long bleeding occurs. A cotton swab is used to soak up the blood as it oozes from the incision. Template bleeding time is the time from incision to stoppage of bleeding. Bleeding times are taken just before administration of test compound (0 min), 60 min into infusion, at conclusion of administration of the test compound (120 min), and at the end of the experiment.
All data are analyzed by one-way analysis of variance (ANOVA) followed by Student-Neuman-Kuels post hoc t test to determine the level of significance. Repeated-measures ANOVA are used to determine significant differences between time points during the experiments. Values are determined to be statistically different at least at the level of p<0.05. All values are mean ±SEM. […]

[4] = Pharmacokinetic model in dogs, single oral dose; format: in vivo, dogs (Beagles); details: single 2 mg/kg oral dose
Experimental: Male dogs (Beagles; 18 months-2 years; 12-13 kg, Marshall Farms, North Rose, N.Y. 14516) are fasted overnight and fed Purina certified Prescription Diet (Purina Mills, St. Louis, Miss.) 240 minutes after dosing. Water is available ad libitum. The room temperature is maintained between 66°-74° F.; 45-50 percent relative humidity; and lighted from 0600-1800 hours.
Test compound is formulated immediately prior to dosing by dissolving in sterile 0.9 percent saline to a 5 mg/ml preparation. Dogs are given a single 2 mg/kg dose of test compound by oral garage. Blood samples (4.5 ml) are taken from the cephalic vein at 0.25, 0.5, 0.75, 1,2,3,4 and 6 hours after dosing. Samples are collected in citrated Vacutainer tubes and kept on ice prior to reduction to plasma by centrifugation. Plasma samples are derivatized with dinitrophenylhydrazine and analyzed by HPLC (Zorbax SB-C8 column) eluting with methanol/500 mM sodium acetate adjusted to pH7 with phosphoric acid (60:40, v/v). Plasma concentration of test compound is recorded and used to calculate the pharmacokinetic parameters: elimination rate constant, Ke; total clearance, Clt; volume of distribution, VD; time of maximum plasma test compound concentration, Tmax; maximum concentration of test compound of Tmax, Cmax; plasma half-life, t0.5; and area under the curve, A.U.C.; fraction of test compound absorbed, F.

## Cl.Cl.N=C(N)NCCC[C@@H](C=O)NC(=O)[C@@H]1CCCN1C(=O)C1NCCCC2CCCCC21 (mixture of isomers) [Example 8, DL-cis-3-aza-bicyclo[5.4.0]undecanyl-2-carbonyl-L-prolinyl-L-arginine aldehyde dihydrochloride]
Human thrombin
  Kass × 10^6 (l/mole): 595 × 10^6 l/mole
[1]
  Percent Relative Activity (Index of Bioavailability): 43%

## Cl.Cl.Cl.N=C(N)NCCC[C@@H](C=O)NC(=O)[C@@H]1CCCN1C(=O)[C@H]1C[C@@H](Oc2ccccc2)CN1.O (relative stereo) [Example 12, D-Cis-(4-phenoxy) Prolinyl-L-Prolinyl-L-Arginine Aldehyde Trihydrochloride Monohydrate]
Human thrombin
  Kass × 10^6 (l/mole): 25 × 10^6 l/mole
[1]
  Percent Relative Activity (Index of Bioavailability): 16%

## CC(C)(C)OC(=O)N[C@H](Cc1ccccc1)C(=O)N1CCC[C@H]1C(=O)N[C@H](C=O)CCCNC(=N)N [Boc-D-Phe-Pro-Arg-H]
thrombin
  direct inhibition of thrombin: potent direct inhibition of thrombin

## CN[C@H](Cc1ccccc1)C(=O)N1CCC[C@H]1C(=O)N[C@H](C=O)CCCNC(=N)N.O=S(=O)(O)O [D-MePhe-Pro-Arg-H sulfate]
[2]
  anticoagulant in man: is an anticoagulant in man

## CN[C@H](Cc1ccccc1)C(=O)N1CCC[C@H]1C(=O)N[C@H](C=O)CCCNC(=N)N [D-MePhe-Pro-Arg-H]
thrombin
  direct inhibition of thrombin: potent direct inhibition of thrombin

## N=C(N)NCCC[C@@H](C=O)NC(=O)[C@@H]1CCCN1C(=O)[C@H](N)Cc1ccccc1 [D-Phe-Pro-Arg-H]
thrombin
  direct inhibition of thrombin: potent direct inhibition of thrombin

## Cl.Cl.N=C(N)NCCC[C@@H](C=O)NC(=O)[C@@H]1CCCN1C(=O)[C@H]1CCCCN1 [Example 1, D-Homoprolinyl-L-Prolinyl-L-Arginine Aldehyde Dihydrochloride] (H-[dPip]-Pro-Arg-aldehyde)
[3]
  effect on template bleeding time: no significant effect on template bleeding time
Human thrombin
  Kass × 10^6 (l/mole): 46 × 10^6 l/mole
[1]
  Percent Relative Activity (Index of Bioavailability): 38%
[4]
  A.U.C. o-infinity: 4651 ng·h/mL
  Cmax: 1676 ng/mL
  Ke (elimination rate constant): 0.0104 min⁻¹
  Tmax: 1 to 2 h
  VD/F (volume of distribution): 0.729 L/kg
  t0.5 (plasma half-life): 67 min

## Cl.Cl.N=C(N)NCCC[C@@H](C=O)NC(=O)C1CCN1C(=O)[C@H]1CCCCN1 (stereo partly drawn) [Example 3, D-Homoprolinyl-L-Azetidinyl-L-Arginine Aldehyde Dihydrochloride] (H-[dPip]-[ξAze]-Arg-aldehyde)
Human thrombin
  Kass × 10^6 (l/mole): 45 × 10^6 l/mole
[1]
  Percent Relative Activity (Index of Bioavailability): 32%

## Cl.Cl.N=C(N)NCCC[C@@H](C=O)NC(=O)[C@@H]1CCCN1C(=O)[C@H]1CSCN1 [Example 4, D-Thiazolidinyl-4-Carbonyl-L-Prolinyl-L-Arginine Aldehyde Dihydrochloride] (H-[dThz]-Pro-Arg-aldehyde)
Human thrombin
  Kass × 10^6 (l/mole): 5 × 10^6 l/mole
[1]
  Percent Relative Activity (Index of Bioavailability): 16%

## CC(C)C1N[C@@H](C(=O)N2CCC[C@H]2C(=O)N[C@H](C=O)CCCNC(=N)N)C(C)(C)S1.Cl.Cl (stereo partly drawn) [Example 5, D-2-Isopropyl-5,5-Dimethylthiazolidinyl-4-Carbonyl-L-Prolinyl-L-Arginine Aldehyde Dihydrochloride]
Human thrombin
  Kass × 10^6 (l/mole): 4 × 10^6 l/mole

## Cl.Cl.Cl.N=C(N)NCCC[C@@H](C=O)NC(=O)[C@@H]1CCCN1C(=O)[C@H]1C[C@H](Oc2ccc3ccccc3c2)CN1.O [Example 6, trans-4-(2-Naphthyloxy)-D-Prolinyl-L-Prolinyl-L-Arginine Aldehyde Trihydrochloride Monohydrate]
Human thrombin
  Kass × 10^6 (l/mole): 21 × 10^6 l/mole

## Cl.Cl.N=C(N)NCCC[C@@H](C=O)NC(=O)[C@@H]1CCCN1C(=O)C1CNCCN1 (stereo partly drawn) [Example 9, D,L-Piperazin-2-oyl-L-Prolinyl-L-Arginine Aldehyde Dihydrochloride]
Human thrombin
  Kass × 10^6 (l/mole): 121 × 10^6 l/mole
[1]
  Percent Relative Activity (Index of Bioavailability): 19%

## Cl.Cl.N=C(N)NCCC[C@@H](C=O)NC(=O)[C@@H]1CCCN1C(=O)C1NCCS1 (stereo partly drawn) [Example 10, D,L-Thiazolidinyl-2-carbonyl-L-prolinyl-L-arginine aldehyde dihydrochloride]
Human thrombin
  Kass × 10^6 (l/mole): 27 × 10^6 l/mole
[1]
  Percent Relative Activity (Index of Bioavailability): 5%

## Cl.Cl.Cl.N=C(N)NCCC[C@@H](C=O)NC(=O)[C@@H]1CCCN1C(=O)[C@H]1C[C@H](Sc2ccccc2)CN1.O.O.O [Example 14, trans-4-phenylthio-D-prolinyl-L-prolinyl-L-arginine aldehyde trihydrochloride trihydrate]
Human thrombin
  Kass × 10^6 (l/mole): 37 × 10^6 l/mole

## D-Prolinyl-L-Prolinyl-L-Arginine Aldehyde Dihydrochloride [Example 2]
Human thrombin
  Kass × 10^6 (l/mole): 12 × 10^6 l/mole
[1]
  Percent Relative Activity (Index of Bioavailability): 36%
